Laboratory results as given in ChEMBL document CHEMBL1201862, “PubChem BioAssay data set” (2004).
Calls of active or inactive are those of the source.

Tests used:
Paired box protein Pax-8 = Paired box protein Pax-8 (Homo sapiens, UniProt Q06710); test: inhibitors of PAX8-driven TPO luciferase reporter, dose response, RMG-I cells, cherry-pick (AID 687027); type: functional, cell-based;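 further: luciferase reporter driven by Pax8 target thyroperoxidase promoter measured by SteadyGlo luminescence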
[1] = cytotoxicity in OVCAR8 ovarian cancer cells, dose response, PAX8 project, cell-based, plate reader, dry powder samples (AID 743197); type: functional; conditions: OVCAR-8
[2] = P. falciparum Dd2 growth inhibitors, dose response, SYBR Green, cherry-picked samples (AID 1159567); type: functional, cell-based
[3] = P. falciparum 3D7-ScDHODH growth inhibitors, dose response, SYBR Green, dry powder samples (AID 1159570); type: functional, cell-based;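 further: parasite growth measured after 72 hours of compound exposure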
[4] = P. falciparum ATP4 D1247Y mutant growth inhibitors, dose response, NITD609-resistant line, SYBR Green, dry powder (AID 1159571); type: functional, cell-based;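 further: parasites synchronized at ring stage by sorbitol before testing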
[5] = P. falciparum Dd2 growth inhibitors, dose response, SYBR Green, dry powder samples (AID 1159566); type: functional, cell-based;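 further: potency for growth inhibition with lower SYBR green DNA signal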
[6] = target: Voltage-dependent T-type calcium channel subunit alpha-1H (Homo sapiens, UniProt O95180); type: functional;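 further: channel activity triggered by adding a high calcium stimulation buffer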
[7] = ADAM10 protease inhibitors, dose response, selectivity assay for ADAM17 exosite inhibitor project, biochemical, FRET peptide substrate, recombinant human ADAM10 (AID 743259);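 further: ADAM10 enzyme cleaving a FRET peptide substrate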
[8] = target: Disintegrin and metalloproteinase domain-containing protein 17 (Homo sapiens, UniProt P78536); test: exosite inhibitors of ADAM17, dose response, biochemical (AID 743260)
Cytochrome P450 3A4 = Cytochrome P450 3A4 (Homo sapiens, UniProt P08684);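 further: CYP3A4 tested as one member of a cytochrome P450 panel screen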
Cytochrome P450 3A4, sequence (P08684 whole entry): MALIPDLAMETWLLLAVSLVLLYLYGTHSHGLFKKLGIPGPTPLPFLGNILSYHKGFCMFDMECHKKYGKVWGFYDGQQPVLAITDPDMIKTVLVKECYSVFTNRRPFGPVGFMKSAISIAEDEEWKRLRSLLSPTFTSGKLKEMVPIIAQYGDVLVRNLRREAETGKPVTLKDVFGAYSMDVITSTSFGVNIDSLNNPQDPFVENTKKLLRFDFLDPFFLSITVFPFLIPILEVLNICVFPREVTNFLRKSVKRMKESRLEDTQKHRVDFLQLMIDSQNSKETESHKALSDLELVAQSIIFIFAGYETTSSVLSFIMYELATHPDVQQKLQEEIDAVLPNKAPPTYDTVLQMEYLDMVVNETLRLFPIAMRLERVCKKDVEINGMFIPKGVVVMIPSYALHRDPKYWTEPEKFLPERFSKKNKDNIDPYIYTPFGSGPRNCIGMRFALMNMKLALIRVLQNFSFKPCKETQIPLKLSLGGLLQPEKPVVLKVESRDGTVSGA

[9] = HEK293T cytotoxicity, dose response, cytotoxicity control for miR-122 modulator project, cell-based, activator set, cherry-pick (AID 720690); type: functional;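 further: HEK293T human cells scored for general mammalian cytotoxicity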
[10] = miR-122 activators in hepatoma reporter cells, dose response, cell-based, Huh7 psiCHECK-miR122, Renilla luciferase, cherry-picked (AID 651956); type: functional;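 further: huh7 hepatoma cells stably carrying a psiCHECK-2 miR-122 sensor plasmid; renilla luciferase signal reporting endogenous miR-122 activity after 48 h compound exposure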
[11] = target: NAD-dependent protein deacylase sirtuin-5, mitochondrial (Homo sapiens, UniProt Q9NXA8); test: SIRT5 desuccinylase inhibitors, dose response, biochemical, fluorescence imaging, cherry-pick, set 5 (AID 720591);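 further: desuccinylation of succinyl peptide AMC substrate read as fluorescence after trypsin release; potency of inhibitors that lower fluorescence and may act on trypsin instead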
NAD-dependent protein deacylase sirtuin-5, mitochondrial, sequence (Q9NXA8 whole entry): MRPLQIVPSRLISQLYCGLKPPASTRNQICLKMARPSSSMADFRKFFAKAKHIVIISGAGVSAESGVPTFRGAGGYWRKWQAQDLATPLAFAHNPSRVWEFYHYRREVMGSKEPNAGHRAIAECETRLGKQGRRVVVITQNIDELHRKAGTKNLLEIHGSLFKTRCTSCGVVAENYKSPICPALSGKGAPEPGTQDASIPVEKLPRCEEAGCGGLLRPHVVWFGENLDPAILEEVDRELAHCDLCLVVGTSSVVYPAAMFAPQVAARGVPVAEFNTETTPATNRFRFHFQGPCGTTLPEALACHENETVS

[12] = Counterscreen for activators of the function of SWI/SNF related, matrix associated, actin dependent regulator of chromatin, subfamily a, member 2 (SMARCA2, BRM): Luminescence-based cell-based high throughput dose response assay to identify non-selective compounds using the VP16 reporter assay.; type: functional
[13] = target: SWI/SNF-related matrix-associated actin-dependent regulator of chromatin subfamily A member 2 (Homo sapiens, UniProt P51531); test: Luminescence-based cell-based high throughput dose response assay to identify activators of the function of SWI/SNF related, matrix associated, actin dependent regulator of chromatin, subfamily a, member 2 (SMARCA2, BRM).; type: functional
SWI/SNF-related matrix-associated actin-dependent regulator of chromatin subfamily A member 2, sequence (P51531 whole entry): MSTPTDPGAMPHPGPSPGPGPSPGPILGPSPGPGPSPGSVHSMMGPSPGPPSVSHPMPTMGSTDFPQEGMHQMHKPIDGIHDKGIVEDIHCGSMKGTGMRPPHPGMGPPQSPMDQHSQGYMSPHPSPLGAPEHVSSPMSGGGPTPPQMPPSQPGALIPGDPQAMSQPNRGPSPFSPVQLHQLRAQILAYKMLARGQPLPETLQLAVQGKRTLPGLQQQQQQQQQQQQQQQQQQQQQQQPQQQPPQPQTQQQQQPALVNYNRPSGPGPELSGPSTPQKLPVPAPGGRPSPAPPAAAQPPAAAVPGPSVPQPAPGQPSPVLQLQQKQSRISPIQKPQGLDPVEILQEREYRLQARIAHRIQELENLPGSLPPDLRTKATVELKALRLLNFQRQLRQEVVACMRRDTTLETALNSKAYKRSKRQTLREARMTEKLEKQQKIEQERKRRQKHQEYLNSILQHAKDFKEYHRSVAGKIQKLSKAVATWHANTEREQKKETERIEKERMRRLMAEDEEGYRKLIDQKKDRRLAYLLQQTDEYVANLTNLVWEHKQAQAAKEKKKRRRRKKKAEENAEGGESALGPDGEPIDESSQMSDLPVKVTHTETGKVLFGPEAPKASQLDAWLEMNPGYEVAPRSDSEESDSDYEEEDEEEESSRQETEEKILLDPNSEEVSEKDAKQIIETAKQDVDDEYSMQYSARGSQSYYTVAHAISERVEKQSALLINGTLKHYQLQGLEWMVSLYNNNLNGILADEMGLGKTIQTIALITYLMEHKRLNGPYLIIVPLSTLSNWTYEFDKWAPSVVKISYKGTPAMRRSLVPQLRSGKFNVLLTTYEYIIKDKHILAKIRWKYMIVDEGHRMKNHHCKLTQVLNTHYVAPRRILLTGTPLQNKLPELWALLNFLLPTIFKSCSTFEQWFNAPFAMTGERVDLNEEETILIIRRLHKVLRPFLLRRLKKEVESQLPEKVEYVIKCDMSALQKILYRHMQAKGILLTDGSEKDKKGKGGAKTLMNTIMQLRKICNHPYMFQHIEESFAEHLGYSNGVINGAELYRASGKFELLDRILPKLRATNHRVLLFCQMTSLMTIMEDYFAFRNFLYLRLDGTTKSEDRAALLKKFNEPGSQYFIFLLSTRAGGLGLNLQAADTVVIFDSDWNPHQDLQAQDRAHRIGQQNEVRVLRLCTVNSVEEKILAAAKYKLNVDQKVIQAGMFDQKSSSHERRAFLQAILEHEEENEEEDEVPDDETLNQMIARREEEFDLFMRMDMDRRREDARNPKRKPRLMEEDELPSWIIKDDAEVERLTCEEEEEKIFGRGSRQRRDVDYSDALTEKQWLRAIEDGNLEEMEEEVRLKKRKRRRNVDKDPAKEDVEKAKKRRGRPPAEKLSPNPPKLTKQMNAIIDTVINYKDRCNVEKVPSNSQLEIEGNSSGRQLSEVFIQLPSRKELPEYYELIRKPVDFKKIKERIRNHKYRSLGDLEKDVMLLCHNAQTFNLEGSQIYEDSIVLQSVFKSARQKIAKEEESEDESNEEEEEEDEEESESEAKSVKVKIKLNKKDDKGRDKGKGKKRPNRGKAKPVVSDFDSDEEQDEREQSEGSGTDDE

[14] = target: T1, Polyadenylate-binding protein 1 (Homo sapiens, UniProt P11940); test: PABP1 MLLE–PAM2 binding inhibitor potency, dose response, biochemical, fluorescence polarization, FITC-PAM2 peptide (AID 602259); type: functional; conditions: read-out: IC50_Mean
T1 sequence (P11940 whole entry): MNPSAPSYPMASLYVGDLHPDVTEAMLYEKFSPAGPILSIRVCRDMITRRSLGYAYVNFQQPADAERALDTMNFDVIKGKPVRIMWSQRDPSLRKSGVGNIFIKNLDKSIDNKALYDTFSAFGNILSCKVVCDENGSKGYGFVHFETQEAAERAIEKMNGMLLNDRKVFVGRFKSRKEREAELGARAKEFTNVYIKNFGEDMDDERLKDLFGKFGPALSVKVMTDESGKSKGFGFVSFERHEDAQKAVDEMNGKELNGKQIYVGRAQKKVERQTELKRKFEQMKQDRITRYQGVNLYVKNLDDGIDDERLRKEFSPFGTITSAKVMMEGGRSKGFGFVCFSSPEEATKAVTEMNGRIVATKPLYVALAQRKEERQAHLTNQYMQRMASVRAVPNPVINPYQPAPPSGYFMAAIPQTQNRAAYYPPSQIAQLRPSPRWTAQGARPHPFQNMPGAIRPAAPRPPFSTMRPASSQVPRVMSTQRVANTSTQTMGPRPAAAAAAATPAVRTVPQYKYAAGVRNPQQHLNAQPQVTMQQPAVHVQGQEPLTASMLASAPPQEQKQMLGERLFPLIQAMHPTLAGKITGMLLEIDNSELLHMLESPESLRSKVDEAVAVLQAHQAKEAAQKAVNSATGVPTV

[15] = target: T1, Polyadenylate-binding protein 1; test: PABP1 MLLE–PAM2 interaction inhibitors, dose response, miRNA deadenylation inhibitor project, biochemical, fluorescence polarization, Cy5-PAM2 peptide, secondary (AID 602260); type: functional; conditions: read-out: IC50_Mean
Beta-lactamase [16] = target: Beta-lactamase (Pseudomonas aeruginosa, UniProt Q79MP6);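 further: biochemical dose-response test of metallo-beta-lactamase enzyme inhibition, read out by epi-absorbance; purified recombinant IMP-1 metallo-beta-lactamase with nitrocefin as substrate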
Beta-lactamase (Pseudomonas aeruginosa, UniProt Q79MP6), sequence (Q79MP6 whole entry): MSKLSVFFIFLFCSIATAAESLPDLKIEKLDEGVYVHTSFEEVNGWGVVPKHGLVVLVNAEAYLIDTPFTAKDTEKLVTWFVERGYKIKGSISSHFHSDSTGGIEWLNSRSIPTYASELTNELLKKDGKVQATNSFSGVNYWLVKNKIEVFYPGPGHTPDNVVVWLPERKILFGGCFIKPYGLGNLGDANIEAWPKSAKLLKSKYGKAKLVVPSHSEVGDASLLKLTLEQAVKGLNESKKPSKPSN

[17] = target: T2, Zinc finger protein mex-5 (Caenorhabditis elegans, UniProt Q9XUB2); test: MEX-5/TCR-2 RNA interaction inhibitors, dose response, biochemical, C. elegans, fluorescence polarization (AID 1960)
T2 sequence (Q9XUB2 whole entry): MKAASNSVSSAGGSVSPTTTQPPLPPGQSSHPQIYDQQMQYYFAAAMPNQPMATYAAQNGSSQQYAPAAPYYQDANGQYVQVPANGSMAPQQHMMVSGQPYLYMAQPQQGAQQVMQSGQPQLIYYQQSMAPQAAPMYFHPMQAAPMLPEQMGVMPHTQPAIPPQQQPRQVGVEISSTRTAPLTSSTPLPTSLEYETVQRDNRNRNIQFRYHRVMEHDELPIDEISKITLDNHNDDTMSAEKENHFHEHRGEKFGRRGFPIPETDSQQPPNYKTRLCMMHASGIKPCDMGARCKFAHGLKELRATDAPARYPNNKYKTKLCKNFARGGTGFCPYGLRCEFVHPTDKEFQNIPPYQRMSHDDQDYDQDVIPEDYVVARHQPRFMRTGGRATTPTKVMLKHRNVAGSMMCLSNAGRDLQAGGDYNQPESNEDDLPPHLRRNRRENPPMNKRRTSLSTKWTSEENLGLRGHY

[18] = target: T3, RNA-binding protein pos-1 (Caenorhabditis elegans, UniProt G5EF15); test: inhibitors of POS-1/mex-3 RNA binding, dose response, biochemical, fluorescence polarization (AID 1964);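 further: purified POS-1 fused to maltose binding protein made in E. coli; potency of compounds blocking POS-1 binding to fluorescent RNA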
T3 sequence (G5EF15 whole entry): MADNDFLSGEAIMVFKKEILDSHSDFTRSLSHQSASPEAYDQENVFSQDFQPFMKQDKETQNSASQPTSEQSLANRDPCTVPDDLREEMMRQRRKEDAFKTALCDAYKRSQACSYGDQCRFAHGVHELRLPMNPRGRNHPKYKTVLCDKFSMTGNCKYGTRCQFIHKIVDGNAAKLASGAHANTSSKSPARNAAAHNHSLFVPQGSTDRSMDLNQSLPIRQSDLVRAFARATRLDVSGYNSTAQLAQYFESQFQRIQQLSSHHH

H9c2 = test: cells; type: functional, cell-based; conditions: Rattus norvegicus, H9c2, Myocardium;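 further: confirmatory concentration-response retest of ultra-high-throughput screening hits for modulation of myocardial damage; cell death induced by hydrogen peroxide oxidative stress; compound pretreatment for 60 min then peroxide exposure for 2 h; potency is for protecting the cells against peroxide damage rather than for killing them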
Beta-lactamase [19] = target: Beta-lactamase (Salmonella choleraesuis (strain SC-B67), UniProt Q5J463)
Beta-lactamase (Salmonella choleraesuis (strain SC-B67), UniProt Q5J463), sequence (Q5J463 whole entry): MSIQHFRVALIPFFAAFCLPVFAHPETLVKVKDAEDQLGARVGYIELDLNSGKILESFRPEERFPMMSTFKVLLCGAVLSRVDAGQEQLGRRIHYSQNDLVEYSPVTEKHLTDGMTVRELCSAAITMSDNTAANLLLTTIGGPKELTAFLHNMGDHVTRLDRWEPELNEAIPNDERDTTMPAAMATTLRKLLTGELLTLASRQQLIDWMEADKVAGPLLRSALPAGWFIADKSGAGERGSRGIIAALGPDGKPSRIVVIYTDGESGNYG

Mu-type opioid receptor = Mu-type opioid receptor (Homo sapiens, UniProt P35372); type: functional, cell-based;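 further: U2OS cells with beta-arrestin recruitment to OPRM1 by beta-gal complementation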
Mu-type opioid receptor, sequence (P35372 whole entry): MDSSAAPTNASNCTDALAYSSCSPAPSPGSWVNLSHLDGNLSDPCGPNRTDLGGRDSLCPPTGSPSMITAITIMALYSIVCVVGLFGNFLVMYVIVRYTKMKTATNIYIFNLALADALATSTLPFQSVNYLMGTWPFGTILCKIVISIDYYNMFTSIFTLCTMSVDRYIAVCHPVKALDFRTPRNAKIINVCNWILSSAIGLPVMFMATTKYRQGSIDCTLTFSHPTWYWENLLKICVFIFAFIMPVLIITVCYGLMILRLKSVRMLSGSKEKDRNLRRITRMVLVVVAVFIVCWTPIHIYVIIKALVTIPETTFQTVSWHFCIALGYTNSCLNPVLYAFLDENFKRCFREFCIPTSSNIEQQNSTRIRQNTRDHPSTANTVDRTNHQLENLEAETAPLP

[20] = target: 5-hydroxytryptamine receptor 2A (Mus musculus, UniProt P35363); type: functional, cell-based;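 further: CHO-K1 cells with tagged receptor and beta-arrestin; agonist potency measured as compound-induced activation of the receptor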
5-hydroxytryptamine receptor 2A, sequence (P35363 whole entry): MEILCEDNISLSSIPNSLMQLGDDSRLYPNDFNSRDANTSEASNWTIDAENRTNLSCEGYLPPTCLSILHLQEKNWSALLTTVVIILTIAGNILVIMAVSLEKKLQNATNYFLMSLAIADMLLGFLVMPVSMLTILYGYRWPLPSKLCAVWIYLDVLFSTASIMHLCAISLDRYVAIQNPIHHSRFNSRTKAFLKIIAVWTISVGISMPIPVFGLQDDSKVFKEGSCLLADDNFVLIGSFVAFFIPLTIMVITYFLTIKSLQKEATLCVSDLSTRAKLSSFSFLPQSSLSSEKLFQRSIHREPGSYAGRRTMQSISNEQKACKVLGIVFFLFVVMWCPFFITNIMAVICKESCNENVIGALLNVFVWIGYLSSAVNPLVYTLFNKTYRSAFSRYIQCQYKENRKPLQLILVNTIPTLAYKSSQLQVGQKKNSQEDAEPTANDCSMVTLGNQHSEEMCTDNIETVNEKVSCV

Paired box protein Pax-8, sequence (Q06710 whole entry): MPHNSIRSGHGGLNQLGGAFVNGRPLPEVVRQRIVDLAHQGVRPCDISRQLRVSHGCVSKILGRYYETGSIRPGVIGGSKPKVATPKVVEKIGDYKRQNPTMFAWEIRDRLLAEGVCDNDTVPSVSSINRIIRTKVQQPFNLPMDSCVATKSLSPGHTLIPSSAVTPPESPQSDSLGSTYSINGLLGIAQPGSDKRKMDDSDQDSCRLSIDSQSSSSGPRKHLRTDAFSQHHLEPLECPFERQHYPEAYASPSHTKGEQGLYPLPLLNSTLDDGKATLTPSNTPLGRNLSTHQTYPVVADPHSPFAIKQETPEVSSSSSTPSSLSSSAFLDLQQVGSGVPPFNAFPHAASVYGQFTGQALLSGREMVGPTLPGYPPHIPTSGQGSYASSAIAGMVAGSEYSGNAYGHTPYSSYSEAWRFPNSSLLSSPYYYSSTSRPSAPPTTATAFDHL

In the case of COc1cccc(S(=O)(=O)N(C)C[C@@H]2OCc3ccccc3-c3c(n(C)c4ccccc34)C(=O)N([C@H](C)CO)C[C@@H]2C)c1, the AC50 (Paired box protein Pax-8) is reported as 6.87 µM (active), the AC50 [1] is reported as 38.6 µM (active) and the AC50 [2] is reported as 0.832 µM (active). The AC50 [3] was 0.476 µM (active), the AC50 [4] was 0.46 µM (active) and the AC50 [5] was 0.322 µM (active).
For O=C(CC(c1ccccc1)c1ccccc1)Nc1ccc2c(c1)OCCO2, the EC50 [6] was 33.6 µM (active), the IC50 [7] was > 69.5 µM (inactive) and the IC50 [8] was > 69.5 µM (inactive). The AC50 (Cytochrome P450 3A4) was 20 µM (inconclusive).
For COc1ccccc1C#Cc1ccc2c(c1)O[C@@H](CN(C)Cc1cccnc1)[C@@H](C)CN([C@H](C)CO)S2(=O)=O, the AC50 [9] was 9.3 µM (active) and the AC50 [10] was 25.4 µM (active).
In the case of C[C@H]1CN([C@@H](C)CO)C(=O)Cc2cc(NC(=O)Nc3ccc(C(F)(F)F)cc3)ccc2O[C@@H]1CN(C)C(=O)Nc1ccc2c(c1)OCO2, the AC50 [2] is reported as 1.51 µM (active), the AC50 [3] is reported as 1.11 µM (active) and the AC50 [4] is reported as 0.93 µM (active). The AC50 [5] was 0.9 µM (active).
With COCC(C)n1c(C)cc(C(=O)COC(=O)CCc2nc(O)c3ccccc3n2)c1C (configuration not stated) the AC50 [11] was > 30 µM (inactive).
With CC(C)CC#Cc1ccc2c(c1)O[C@H](CN(C)C(=O)c1ccccc1)[C@H](C)CN([C@H](C)CO)S2(=O)=O the AC50 [9] was 27.5 µM (active) and the AC50 [10] was 27.2 µM (active).
In the case of O=c1c2ccccc2sc2c(CO)ccc(NCCN3CCCCC3)c12, the EC50 [12] is reported as > 91.1 µM (inactive), the AC50 (Cytochrome P450 3A4) is reported as 6.31 µM (inconclusive) and the EC50 [13] is reported as > 91.1 µM (inactive).
For COc1cc(C(=O)Nc2nnc(Cc3ccccc3)s2)cc(OC)c1OC, the AC50 [11] was > 30 µM (inactive).
For CCOC(=O)c1c2c3c(cccc3n(C)c1=O)C(=O)c1ccccc1-2, the IC50 [14] was 37.2 µM (inactive), the IC50 [15] was > 66 µM (inactive) and the IC50 (Beta-lactamase [16]) was > 59.6 µM (inactive). The EC50 [17] was 9.59 µM (active), the EC50 [18] was 8.67 µM (inconclusive) and the IC50 (H9c2) was > 79 µM (inactive). For the same compound, the IC50 (Beta-lactamase [19]) was > 59.6 µM (inactive).
For CC(C)=CC(=O)N1CC[C@@H](N2CCN(c3ccccc3F)CC2)[C@H](O)C1, the EC50 (Mu-type opioid receptor) was 92.4 µM (inactive) and the EC50 [20] was 43.5 µM (inactive).
